Where two headings read alike, the source gives them in different places.
Legend:
RORγ = target: T1, RORγ (UniProt P51449); assay: RORγ Gal4 Reporter Gene Assay in 293T cells (firefly and renilla luciferase); format: cell-based, human
T1 sequence (P51449 1-518): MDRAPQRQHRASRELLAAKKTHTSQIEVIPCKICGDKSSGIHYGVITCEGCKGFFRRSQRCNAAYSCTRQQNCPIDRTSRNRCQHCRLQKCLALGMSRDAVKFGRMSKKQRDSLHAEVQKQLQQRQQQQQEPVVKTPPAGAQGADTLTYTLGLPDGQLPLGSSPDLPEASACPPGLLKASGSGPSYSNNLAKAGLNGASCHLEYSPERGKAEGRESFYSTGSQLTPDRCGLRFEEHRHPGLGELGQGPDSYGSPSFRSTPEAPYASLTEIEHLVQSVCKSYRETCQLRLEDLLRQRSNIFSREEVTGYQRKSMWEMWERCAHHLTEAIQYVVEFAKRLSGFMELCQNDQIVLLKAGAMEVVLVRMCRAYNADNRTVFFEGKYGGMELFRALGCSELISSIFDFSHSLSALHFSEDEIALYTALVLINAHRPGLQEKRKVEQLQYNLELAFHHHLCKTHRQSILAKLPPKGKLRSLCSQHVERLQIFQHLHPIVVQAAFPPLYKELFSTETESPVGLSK

[1] = target: T2, RORγ ligand binding domain (LBD) (Homo sapiens, UniProt P51449); assay: TR-FRET Activity Assay (ligand sensing, RORγ-LBD / coactivator peptide interaction, LANCE); format: biochemical
T2 construct: made in house; host or cells: E. coli BL-21 (BL3), vector pDEST15
T2 sequence (P51449 269-508 limits assumed): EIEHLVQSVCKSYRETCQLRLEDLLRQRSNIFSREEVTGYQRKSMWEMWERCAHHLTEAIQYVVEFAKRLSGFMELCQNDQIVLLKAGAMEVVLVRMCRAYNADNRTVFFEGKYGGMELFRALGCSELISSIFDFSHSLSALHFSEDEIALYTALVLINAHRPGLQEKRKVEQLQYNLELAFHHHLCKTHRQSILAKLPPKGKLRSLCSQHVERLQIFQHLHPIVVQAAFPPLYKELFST

[2] = second value of the cell, Gal4 reporter gene assay in 293T cells, firefly luciferase
[3] = third value of the cell, Gal4 reporter gene assay in 293T cells, renilla normalised luciferase
[4] = first value of the cell FRET/FF/REN, TR-FRET activity assay, read-out: pIC50 (FRET) (converted)

| Compound | pIC50 (FF) (RORγ; [2]) | pIC50 (REN) (RORγ; [3]) | IC50 [1, 4] | pIC50 (FF) (RORγ) | pIC50 (REN) (RORγ) | IC50 [1] |
| --- | --- | --- | --- | --- | --- | --- |
| Cc1c(C(=O)NC2CCOCC2)cc(-c2ccc(S(=O)(=O)NC(C)(C)C)c(C(F)(F)F)c2)n1[C@H](C)C1CCCCC1 [17/254] | 6.6 | 6.6 | 0.631 µM |  |  |  |
| Cc1c(C(=O)NC2CCOCC2)cc(-c2ccc(S(=O)(=O)NC(C)(C)C)c(C(F)(F)F)c2)n1CC1(O)CCCCC1 [17/255] | < 4.7 | < 4.7 | 7.94 µM |  |  |  |
| Cc1c(C(=O)NC2CCOCC2)cc(-c2ccc(S(=O)(=O)NC(C)(C)C)c(C(F)(F)F)c2)n1CC1CCC(F)CC1 (stereo not drawn) [17/257] |  |  |  | 6.3/7.4/7.6 | 6.3/7.4/7.6 | 0.501 µM |
| Cc1c(C(=O)NC2CCOCC2)cc(-c2ccc(S(=O)(=O)NC(=O)C(C)(C)C)c(C(F)(F)F)c2)n1CC1CCCCC1 [17/258] | < 4.7 | < 4.7 | 7.94 µM |  |  |  |
| Cc1c(C(=O)N[C@H]2C[C@H](C(=O)O)C2)cc(-c2cc(C(C)(C)C)nc(C(C)(C)C)c2)n1CC1CCCCC1 [17/262] |  |  |  | 6.2/7.6/7.8 | 6.2/7.6/7.8 | 0.631 µM |
| Cc1c(C(=O)NCC2CCS(=O)(=O)CC2)cc(-c2ccc(S(=O)(=O)NC(C)(C)C)c3ccccc23)n1CC1CCCCC1 [17/265] | 7.9 | 8.0 | 0.316 µM |  |  |  |
| Cc1c(C(=O)N2CC3(CCOCC3)C2)cc(-c2ccc(S(=O)(=O)NC(C)(C)C)c3ccccc23)n1CC1CCCCC1 [17/266] | 8.3 | 8.5 | 0.251 µM |  |  |  |
| Cc1c(C(=O)NCC2(O)CCS(=O)(=O)CC2)cc(-c2ccc(S(=O)(=O)NC(C)(C)C)c3ccccc23)n1CC1CCCCC1 [17/268] | 7.7 | 7.8 | 0.794 µM |  |  |  |
| Cc1c(C(=O)NCCN2CCOCC2)cc(-c2ccc(S(=O)(=O)NC(C)(C)C)c3ccccc23)n1CC1CCCCC1 [17/269] |  |  |  | 6.0/6.9/7.0 | 6.0/6.9/7.0 | 1 µM |
| Cc1c(C(=O)N2CC3(CCS(=O)(=O)CC3)C2)cc(-c2ccc(S(=O)(=O)NC(C)(C)C)c3ccccc23)n1CC1CCCCC1 [17/270] | 7.8 | 8.0 | 0.631 µM |  |  |  |
| Cc1c(C(=O)N[C@H]2C[C@H](C(=O)O)C2)cc(-c2ccc(S(=O)(=O)NCC(F)(F)F)c3ccccc23)n1CC1CCCCC1 [17/271] | 7.1 | 7.1 | 0.794 µM |  |  |  |
| Cc1c(-c2cc(C(=O)NC3CCOCC3)c(C)n2CC2CCCCC2)ccc(S(=O)(=O)NC(C)(C)C)c1C [17/273] | 7.2 | 7.3 | 1.58 µM |  |  |  |
| Cc1c(S(=O)(=O)NC(C)(C)C)ccc(-c2cc(C(=O)NC3CCOCC3)c(C)n2CC2CCCCC2)c1Cl [17/274] | 7.9 | 7.9 | 0.251 µM |  |  |  |
| Cc1c(C(=O)NC2CCOCC2)cc(-c2ccc(S(=O)(=O)NC(C)(C)C)c(Cl)c2Cl)n1CC1CCCCC1 [17/276] |  |  |  | 6.8/7.9/8.0 | 6.8/7.9/8.0 | 0.158 µM |
| Cc1c(C(=O)N[C@H]2C[C@H](C(=O)O)C2)cc(-c2ccc(S(=O)(=O)NC(C)(C)C)c(Cl)c2Cl)n1CC1CCCCC1 [17/277] | 7.2 | 7.2 | 0.398 µM |  |  |  |
| Cc1c(C(=O)NCC(C)(C)O)cc(-c2ccc(S(=O)(=O)NC(C)(C)C)c3ccccc23)n1CC1CCC(F)(F)CC1 [17/278] | 7.0 | 7.0 | 2.51 µM |  |  |  |
| Cc1c(C(=O)N[C@H]2C[C@H](C(=O)O)C2)cc(-c2ccc(S(=O)(=O)NC(C)(C)C)c3c2OCCO3)n1CC1CCCCC1 [17/279] | < 4.7 | < 4.7 | 3.16 µM |  |  |  |
| Cc1c(C(=O)N[C@H]2C[C@H](C(=O)O)C2)cc(-c2ccc(S(=O)(=O)NC(C)(C)C)c3c2CCCC3)n1CC1CCCCC1 [17/281] | 7.7 | 7.7 | 1 µM |  |  |  |
| Cc1c(C(=O)NC2CCOCC2)cc(-c2ccc(S(=O)(=O)NC(C)(C)C)c3cccnc23)n1CC1CCCCC1 [17/282] | 6.6 | 6.7 | 2 µM |  |  |  |
| Cc1c(C(=O)NC2CCOCC2)cc(-c2ccc(S(=O)(=O)NC(C)(C)C)c3ncccc23)n1CC1CCCCC1 [17/283] | 6.7 | 6.8 | 1 µM |  |  |  |
| Cc1c(S(=O)(=O)NC(C)(C)C)ccc(-c2cc(C(=O)NCCC(C)(C)C(=O)O)c(C)n2CC2CCCCC2)c1OC(F)F [17/284] | 7.3 | 7.3 | 1.26 µM |  |  |  |
| Cc1c(S(=O)(=O)NC(C)(C)C)ccc(-c2cc(C(=O)NC3CCOCC3)c(C)n2CC2CCCCC2)c1OC(F)F [17/285] | 7.3 | 7.4 | 0.631 µM |  |  |  |
| Cc1c(S(=O)(=O)NC(C)(C)C)ccc(-c2cc(C(=O)NCCC(C)(C)C(=O)O)c(C)n2CC2CCCCC2)c1C(F)(F)F [17/286] | 7.4 | 7.5 | 1.26 µM |  |  |  |
| Cc1c(S(=O)(=O)NC(C)(C)C)ccc(-c2cc(C(=O)NC3CCOCC3)c(C)n2CC2CCCCC2)c1C(F)(F)F [17/287] | 7.7 | 7.7 | 0.631 µM |  |  |  |
| Cc1c(C(=O)NC2CCOCC2)cc(-c2ccc(S(=O)(=O)NC(C)(C)C)c(C(F)(F)F)c2Cl)n1CC1CCCCC1 [17/288] | 7.3 | 7.3 | 0.398 µM |  |  |  |
| Cc1c(S(=O)(=O)NC(C)(C)C)ccc(-c2cc(C(=O)NCC(C)(C)O)c(C)n2CC2CCCCC2)c1Cl [17/291] | 7.6 | 7.7 | 0.398 µM |  |  |  |
| Cc1c(C(=O)N2CC3(COCC(=O)N3)C2)cc(-c2ccc(S(=O)(=O)NC(C)(C)C)c(C(F)(F)F)c2)n1CC1CCCCC1 [17/293] | 6.6 | 6.7 | 1.26 µM |  |  |  |

Second part, led by results:

| pIC50 (FF) (RORγ; [2]) | pIC50 (REN) (RORγ; [3]) | IC50 [1, 4] | Compound | pIC50 (FF) (RORγ) | pIC50 (REN) (RORγ) | IC50 [1] |
| --- | --- | --- | --- | --- | --- | --- |
| 6.8 | 7.0 | 0.631 µM | Cc1c(C(=O)NC2CCOCC2)cc(-c2ccc(S(=O)(=O)NC(C)(C)C)c(C(F)(F)F)c2)n1CC1CCC(F)(F)CC1 [17/256] |  |  |  |
| 7.2 | 7.2 | 1 µM | Cc1c(C(=O)NC2CCC(C)(C(=O)O)CC2)cc(-c2ccc(S(=O)(=O)NC(C)(C)C)c(C(F)(F)F)c2)n1CC1CCCCC1 (stereo not drawn) [17/259] |  |  |  |
| 7.9 | 8.0 | 0.316 µM | Cc1c(C(=O)NC2CCS(=O)(=O)CC2)cc(-c2ccc(S(=O)(=O)NC(C)(C)C)c3ccccc23)n1CC1CCCCC1 [17/263] |  |  |  |
| 7.9 | 7.7 | 0.631 µM | Cc1c(C(=O)NCC(C)(C)O)cc(-c2ccc(S(=O)(=O)NC(C)(C)C)c3ccccc23)n1CC1CCCCC1 [17/264] |  |  |  |
| 7.9 | 8.0 | 0.794 µM | Cc1c(C(=O)NCC2(C(N)=O)CCOCC2)cc(-c2ccc(S(=O)(=O)NC(C)(C)C)c3ccccc23)n1CC1CCCCC1 [17/267] |  |  |  |
| 6.8 | 6.9 | 0.501 µM | Cc1c(-c2cc(C(=O)N[C@H]3C[C@H](C(=O)O)C3)c(C)n2CC2CCCCC2)ccc(S(=O)(=O)NC(C)(C)C)c1C [17/272] |  |  |  |
| 7.0 | 7.0 | 0.631 µM | Cc1c(S(=O)(=O)NC(C)(C)C)ccc(-c2cc(C(=O)N[C@H]3C[C@H](C(=O)O)C3)c(C)n2CC2CCCCC2)c1Cl [17/275] |  |  |  |
| 8.1 | 8.1 | 1 µM | Cc1c(C(=O)NC2CCOCC2)cc(-c2ccc(S(=O)(=O)NC(C)(C)C)c3c2CCCC3)n1CC1CCCCC1 [17/280] |  |  |  |
| 7.1 | 7.2 | 1.26 µM | Cc1c(C(=O)NCCC(C)(C)C(=O)O)cc(-c2ccc(S(=O)(=O)NC(C)(C)C)c(C(F)(F)F)c2Cl)n1CC1CCCCC1 [17/289] |  |  |  |
| 7.6 | 7.6 | 0.631 µM | Cc1c(S(=O)(=O)NC(C)(C)C)ccc(-c2cc(C(=O)NCC3(O)CCS(=O)(=O)CC3)c(C)n2CC2CCCCC2)c1Cl [17/290] |  |  |  |
| 7.5 | 7.4 | 1.26 µM | Cc1c(C(=O)N[C@H]2C[C@H](C(=O)O)C2)cc(-c2cc(C(C)(C)C)nc(C3(C)CC3)c2)n1CC1CCCCC1 [17/292] |  |  |  |
| < 4.7 | < 4.7 | 3.16 µM | Cc1c(C(=O)N2CC3(C2)NC(=O)CNC3=O)cc(-c2ccc(S(=O)(=O)NC(C)(C)C)c(C(F)(F)F)c2)n1CC1CCCCC1 [17/294] |  |  |  |
| 6.6 | 6.5 | 1 µM | Cc1c(C(=O)NC2CNC(=O)C23CCOCC3)cc(-c2ccc(S(=O)(=O)NC(C)(C)C)c(C(F)(F)F)c2)n1CC1CCCCC1 (stereo not drawn) [17/295] |  |  |  |

From patent US9815851B2, “Pyrrolo carboxamides as modulators of orphan nuclear receptor RAR-related orphan receptor-gamma (RORγ, NR1F3) activity and for the treatment of chronic inflammatory and autoimmune diseases” (PHENEX PHARMACEUTICALS AG, priority 2011, dated 2017)
